“And” between values parts separate entries of the source, which are not always exact repeats. Equal values may be shown once. ± gives the uncertainty stated by the source.
Experiment: xn = mol fraction of the nth substance listed
Conditions: 100 kPa

CN1CCCN(C)C1=O + O
viscosity
Conditions	303.15 K	308.15 K	313.15 K	318.15 K	323.15 K
x1 = 0.007139	0.942 ± 0.057 mPa·s	0.848 ± 0.051 mPa·s	0.769 ± 0.047 mPa·s	0.699 ± 0.042 mPa·s	–
x1 = 0.01508	1.127 ± 0.068 mPa·s	1.012 ± 0.061 mPa·s	0.919 ± 0.055 mPa·s	0.843 ± 0.051 mPa·s	–
x1 = 0.0297	1.386 ± 0.084 mPa·s	1.236 ± 0.075 mPa·s	1.112 ± 0.067 mPa·s	1.002 ± 0.06 mPa·s	–
x1 = 0.0568	1.979 ± 0.12 mPa·s	1.733 ± 0.1 mPa·s	1.538 ± 0.093 mPa·s	1.379 ± 0.083 mPa·s	–
x1 = 0.08573	2.774 ± 0.17 mPa·s	2.371 ± 0.14 mPa·s	2.05 ± 0.12 mPa·s	1.791 ± 0.11 mPa·s	–
x1 = 0.1227	3.836 ± 0.23 mPa·s	3.224 ± 0.19 mPa·s	2.741 ± 0.17 mPa·s	2.354 ± 0.14 mPa·s	–
x1 = 0.1461	4.568 ± 0.28 mPa·s	3.799 ± 0.23 mPa·s	3.201 ± 0.19 mPa·s	2.728 ± 0.16 mPa·s	–
x1 = 0.1745	5.342 ± 0.32 mPa·s	4.401 ± 0.27 mPa·s	3.676 ± 0.22 mPa·s	3.114 ± 0.19 mPa·s	–
x1 = 0.2062	5.943 ± 0.36 mPa·s	4.87 ± 0.29 mPa·s	4.051 ± 0.24 mPa·s	3.414 ± 0.2 mPa·s	–
x1 = 0.2453	6.471 ± 0.39 mPa·s	5.287 ± 0.32 mPa·s	4.386 ± 0.26 mPa·s	3.685 ± 0.22 mPa·s	–
x1 = 0.2961	6.828 ± 0.41 mPa·s	5.569 ± 0.34 mPa·s	4.616 ± 0.28 mPa·s	3.878 ± 0.23 mPa·s	–
x1 = 0.3486	6.796 ± 0.41 mPa·s	5.568 ± 0.34 mPa·s	4.626 ± 0.28 mPa·s	3.9 ± 0.23 mPa·s	–
x1 = 0.3968	6.483 ± 0.39 mPa·s	5.332 ± 0.32 mPa·s	4.45 ± 0.27 mPa·s	3.744 ± 0.23 mPa·s	–
x1 = 0.4616	6.161 ± 0.37 mPa·s	5.13 ± 0.31 mPa·s	4.326 ± 0.26 mPa·s	3.692 ± 0.22 mPa·s	–
x1 = 0.5081	5.768 ± 0.35 mPa·s	4.838 ± 0.29 mPa·s	4.11 ± 0.25 mPa·s	3.531 ± 0.21 mPa·s	–
x1 = 0.5809	5.129 ± 0.31 mPa·s	4.357 ± 0.26 mPa·s	3.75 ± 0.23 mPa·s	3.257 ± 0.2 mPa·s	–
x1 = 0.6498	4.532 ± 0.27 mPa·s	3.892 ± 0.23 mPa·s	3.37 ± 0.2 mPa·s	2.946 ± 0.18 mPa·s	–
x1 = 0.6917	4.245 ± 0.26 mPa·s	3.672 ± 0.22 mPa·s	3.202 ± 0.19 mPa·s	2.817 ± 0.17 mPa·s	–
x1 = 0.797	3.571 ± 0.21 mPa·s	3.134 ± 0.19 mPa·s	2.772 ± 0.17 mPa·s	2.468 ± 0.15 mPa·s	–
x1 = 0.8669	3.203 ± 0.19 mPa·s	2.837 ± 0.17 mPa·s	2.531 ± 0.15 mPa·s	2.274 ± 0.14 mPa·s	–
x1 = 0.9357	2.957 ± 0.18 mPa·s	2.647 ± 0.16 mPa·s	2.384 ± 0.14 mPa·s	2.16 ± 0.13 mPa·s	–
x1 = 0.9554	2.834 ± 0.17 mPa·s	2.533 ± 0.15 mPa·s	2.283 ± 0.14 mPa·s	2.071 ± 0.12 mPa·s	–
x2 = 0.0016	–	2.348 ± 0.14 mPa·s and 2.365 ± 0.14 mPa·s	2.126 ± 0.13 mPa·s and 2.141 ± 0.13 mPa·s	1.937 ± 0.12 mPa·s and 1.95 ± 0.12 mPa·s	1.777 ± 0.11 mPa·s and 1.784 ± 0.11 mPa·s
x2 = 0.0169	–	2.425 ± 0.15 mPa·s	2.191 ± 0.13 mPa·s	1.992 ± 0.12 mPa·s	1.819 ± 0.11 mPa·s

From the CheMixHub viscosity set
